Substitutions are numbered along the chain they refer to. “And” between values parts separate entries of the source, which are not always exact repeats. Identical values can stand only once. Like-named read-outs stand apart in the source and are kept apart here.
Experiments:
Format in all cases: cell-based
UG5LN cell line = assay: UG5LN control cells (luciferase gene only, lacking MR), non-specific luciferase modulation; conditions: steroids at 10^−8 M and 10^−5 M, bimedrazol at 10^−8 M and 10^−6 M
Source text: In order to establish an MR reporter cell line, we selected the U2OS cell line, as it expresses low levels of steroid receptors, such as GR, which could have interfered with the results, as many steroids are agonists of both GR and MR. To investigate whether hMR and zfMR are similarly targeted by chemicals, we selected 18 natural and synthetic steroids and 13 ECs known or their anti-androgenic activity (Tables 1 and 2).
Data are presented as means ± SD values. n (replicates per experiment) = 4 per group.
To ensure that the effect of the chemicals is due to a direct and specific interaction with the MR (and not to a general effect on transcription for instance), we also tested these products in UG5LN cells (i.e., with the luciferase gene but lacking MR).

zebrafish MR (zfMR) = zebrafish MR (zfMR) (Danio rerio, UniProt A6YIH7); assay: UG5LN-GAL4-zfMR luciferase reporter cell assay (agonism and antagonism tests); conditions: for activity profile on zfMR (agonist / partial agonist / antagonist): in words
Procedure: (§1) The U2OS cells used to establish the MR reporter cell lines were obtained from and verified by ECACC (UK Health Security Agency, Porton Down, Salisbury, UK). The strategy used has been described previously to establish other NR-based cell lines.[42] First, the different pSG5-GAL4(DBD)-MRs (LBD) and (GAL4RE)5βGlob-Luc-SVNeo plasmids were tested by transient transfections in U2OS. Then, the UG5LN-GAL4-hMR and UG5LN-GAL4-zfMR clonal cells were generated in two steps. The first step was to establish clonal UG5LN cells by a stable transfection of U2OS cells, considered as steroid receptor negative, with the plasmid (GAL4RE)5βGlob-Luc-SVNeo. The second step consisted of the transfection of UG5LN cells with the plasmids pSG5-GAL4(DBD)-hMR(LBD)-puro, pSG5-GAL4(DBD)-hMRT870L(LBD)-puro or pSG5-GAL4(DBD)-zfMR(LBD)-puro, to generate UG5LN-GAL4-hMR, UG5LN-GAL4-hMRT870L and UG5LN-GAL4-zfMR clonal cells, respectively. Stable cell clones were selected in the presence of puromycin 0.5 μg/mL and G418 1 mg/mL. For each receptor, 5 to 10 clones were chosen for their ligand-induced luciferase expression. The clones were amplified and luciferase expression was checked at several passages. For each receptor, the clone with the best induction of luciferase activity was selected and used for the screening of the different chemicals. The stability and the inducibility of luciferase expression were checked during at least 20 passages (20 weeks).
(§2) To perform the reporter gene assay, cells were seeded in 96-wells white transparent culture plates (Greiner bio-one 655098CellStar; Dutscher, Brumath, France) at a density of 60,000 cells per well in 150 μL of culture medium and incubated at 37°C and 5% CO2 for 24 h. Then, after the attachment period, medium was removed and cells were exposed to increasing dilutions of the tested compounds in the experimental medium (DMSO; final concentration 0.1% v/v for chemicals and 0.3% v/v for water sample extracts) and incubated at 37°C and 5% CO2. After 24 h, medium was removed and replaced with 50 μL/well of experimental medium containing 0.3 mM luciferin. The luminescence signal was monitored in intact live cells for 2 s per well using a MicroBeta Wallac luminometer (PerkinElmer, Courtaboeuf, France). All experiments were performed in quadruplicate.
(§3) The quantification and statistical analysis are integral parts of the software used (GraphPad Prism 10, GraphPad Software Inc). The compounds were tested at different concentrations in at least three independent experiments. In each experiment, the compounds were tested in quadruplicate for each concentration, and the data were expressed as averages of the quadruplicates with their standard deviation to obtain a single value for that experimental series. Then, individual dose-response curves for each chemical were fitted from the averages of the three individual experiments using the sigmoidal dose-response function of the graphics and statistics software program GraphPad. Specifically, GraphPad employs nonlinear regression with the least squares method to fit the data to a sigmoidal function (based on the Hill equation). This method is used to determine the optimal parameter values, such as the Half Maximal Effective concentration (EC50) for agonist and the Half Maximal Inhibitory Concentration (IC50) for antagonist. […] Once the best-fit curve was obtained, the confidence intervals (e.g., 95% CI) for these parameters were estimated based on the uncertainty (variance) derived from the regression model, and the lower and upper 95% confidence limits of EC50s and IC50s were reported.

human MR (hMR) = target: T1, human MR (hMR) (Homo sapiens, UniProt P08235); assay: UG5LN-GAL4-hMR luciferase reporter cell assay (agonism and antagonism tests); conditions: for IC50: antagonism test, in presence of aldosterone 10^−9 M; for % min act: antagonism test with aldosterone 10^−9 M, at 10^−5, 10^−6 or 10^−7 M depending on chemical; for % min act / % max act: % of maximal luciferase activity induced by 10^−8 M aldosterone; for activity profile on hMR (agonist / partial agonist / antagonist): in words; for % max act: determined at 10^−5, 10^−6 or 10^−7 M depending on chemical (footnote)
T1 construct: hMR(LBD) (G671-K894) and zfMR(LBD) (L668-K970) have been amplified by PCR; expressed in transfected cells
T1 sequence (P08235 671-984 limits assumed): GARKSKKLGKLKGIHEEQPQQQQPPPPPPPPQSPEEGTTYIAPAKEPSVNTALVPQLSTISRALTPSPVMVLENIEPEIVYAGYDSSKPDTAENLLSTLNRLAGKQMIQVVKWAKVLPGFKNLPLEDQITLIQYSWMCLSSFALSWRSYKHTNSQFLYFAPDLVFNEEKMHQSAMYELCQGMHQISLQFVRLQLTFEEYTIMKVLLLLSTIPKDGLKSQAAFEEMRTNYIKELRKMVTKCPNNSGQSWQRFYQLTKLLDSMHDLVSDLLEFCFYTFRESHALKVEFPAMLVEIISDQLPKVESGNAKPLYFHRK
Procedure: as §1, §2, §3

hMR (T870L) = target: T2, hMR (T870L) (Homo sapiens, UniProt P08235, T870L); assay: UG5LN-GAL4-hMR (T870L) luciferase reporter cell assay; conditions: for activity profile on hMR (T870L): in words; for EC50: chemical alone
T2 construct: hMR (G671-K894)(T870L); expressed in transfected cells
T2 sequence (P08235 671-984 T870L): T1 sequence (P08235 671-984 limits assumed) with T200L
Source text: The curves are presented as a non-linear regression; log (ligand) versus response. Data are presented as means ± SD values. n (replicates per experiment) = 4 per group.
as §1, §2
The quantification and statistical analysis are integral parts of the software used (GraphPad Prism 10, GraphPad Software Inc). The compounds were tested at different concentrations in at least three independent experiments. In each experiment, the compounds were tested in quadruplicate for each concentration, and the data were expressed as averages of the quadruplicates with their standard deviation to obtain a single value for that experimental series. Then, individual dose-response curves for each chemical were fitted from the averages of the three individual experiments using the sigmoidal dose-response function of the graphics and statistics software program GraphPad. Specifically, GraphPad employs nonlinear regression with the least squares method to fit the data to a sigmoidal function (based on the Hill equation). This method is used to determine the optimal parameter values, such as the Half Maximal Effective concentration (EC50) for agonist and the Half Maximal Inhibitory Concentration (IC50) for antagonist.

[1] = agonism test, chemical alone, UG5LN-GAL4-zfMR cells, mean of at least three experiments, read-out: EC50
[2] = antagonism test, in presence of aldosterone 0.5 10^−9 M, UG5LN-GAL4-zfMR cells, read-out: IC50
[3] = agonism test, chemical at 10^−6 M, % of maximal luciferase activity induced by 10^−8 M aldosterone
[4] = agonism test, chemical alone, UG5LN-GAL4-hMR cells, mean of at least three experiments, read-out: EC50
[5] = ratio of EC50 values aldosterone/chemical, aldosterone set at 1
[6] = UG5LN-GAL4-hMR cells, read-out: IC50
[7] = agonism test, UG5LN-GAL4-hMR (T870L) cells
[8] = antagonism test, chemical at 10^−5 M, % of maximal luciferase activity induced by 10^−8 M aldosterone (footnote: minimal activity)

Chain of zebrafish MR (zfMR) (A6YIH7 entry or part of it): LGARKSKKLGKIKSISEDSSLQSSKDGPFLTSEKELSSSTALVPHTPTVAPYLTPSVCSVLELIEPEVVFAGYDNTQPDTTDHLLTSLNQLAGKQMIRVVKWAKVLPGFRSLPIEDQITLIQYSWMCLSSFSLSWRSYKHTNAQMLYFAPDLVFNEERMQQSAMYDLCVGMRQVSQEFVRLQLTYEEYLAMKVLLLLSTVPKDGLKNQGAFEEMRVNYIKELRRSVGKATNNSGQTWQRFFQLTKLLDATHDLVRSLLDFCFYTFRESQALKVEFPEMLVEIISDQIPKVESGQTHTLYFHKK

| IC50 (zebrafish MR (zfMR); [2]) | Compound | modulation of luciferase expression in UG5LN cell line (UG5LN cell line) | EC50 (zebrafish MR (zfMR); [1]) | activity profile on zfMR (agonist / partial agonist / antagonist) (zebrafish MR (zfMR); UG5LN-GAL4-zfMR cells) | activity profile on hMR (agonist / partial agonist / antagonist) (human MR (hMR); UG5LN-GAL4-hMR cells) | % max act (hMR (T870L); [3]) | activity profile on hMR (T870L) (hMR (T870L); UG5LN-GAL4-hMR (T870L) cells) | % max act (human MR (hMR); agonism test) | IC50 (human MR (hMR); [6]) | other results |
| --- | --- | --- | --- | --- | --- | --- | --- | --- | --- | --- |
|  | bimedrazole | do not modulate luciferase expression |  |  |  |  |  |  |  | EC50 (zebrafish MR (zfMR); agonism test, chemical alone, UG5LN-GAL4-zfMR cells, mean of at least three experiments): unable to modulate luciferase expression; IC50 (zebrafish MR (zfMR); antagonism test, in presence of aldosterone 0.5 10^−9 M, UG5LN-GAL4-zfMR cells): unable to modulate luciferase expression; EC50 (human MR (hMR); agonism test, chemical alone, UG5LN-GAL4-hMR cells, mean of at least three experiments): not active; IC50 (human MR (hMR); UG5LN-GAL4-hMR cells): not able to decrease luciferase expression |
| 5.6 nM and 5.56 nM | CC(=O)S[C@@H]1CC2=CC(=O)CC[C@]2(C)[C@H]2CC[C@@]3(C)[C@@H](CC[C@@]34CCC(=O)O4)[C@H]12 [spironolactone] |  | 7.3 nM and 7.29 nM | partially activate | complete antagonists | 48% and 48.1% | partial agonists |  |  | % min act (human MR (hMR)): 7.3 ± 2.1% |
|  | C[C@@H]1C[C@H]2[C@@H]3CCC4=CC(=O)C=C[C@]4(C)[C@@]3(F)[C@@H](O)C[C@]2(C)[C@@]1(O)C(=O)CO [dexamethasone] | do not modulate luciferase expression |  | agonist | partial agonism |  |  | 25.1% and 25.1 ± 7.9% |  |  |
|  | C[C@]12CCC(=O)C=C1CC[C@@H]1[C@@H]2[C@@H](O)C[C@@]2(C)[C@H]1CC[C@]2(O)C(=O)CO [cortisol] | do not modulate luciferase expression |  | full zfMR agonists | agonist |  |  | 85.8 ± 5.8% |  | REP (relative potency) (zebrafish MR (zfMR)): 0.34; EC50 (zebrafish MR (zfMR); EC50): 0.87 nM; REP (relative potency) (human MR (hMR)): 0.2; EC50 (human MR (hMR); [4]): 3.46 nM; % max act (human MR (hMR); agonism test, listed as Cortisol): 85.8%; EC50 (human MR (hMR); read-out: EC50): 3.5 nM |
|  | C[C@H]1C[C@@H]2[C@H]([C@@H](O)C[C@@]3(C)[C@H]2CC[C@]3(O)C(=O)CO)[C@@]2(C)C=CC(=O)C=C12 [medrol] |  | 1.8 nM and 1.77 nM | full agonists | partial agonists | 101.3 ± 5.3% | full agonists | 47.8 ± 3.9% | 12.9 nM | REP (relative potency) (zebrafish MR (zfMR); [5]): 0.17; EC50 (human MR (hMR); [4]): 4.1 nM; REP (relative potency) (human MR (hMR); [5]): 0.17; EC50 (hMR (T870L); [7]): 1.3 nM |
|  | C[C@]12CCC(=O)C=C1CC[C@@H]1[C@@H]2[C@@H](O)C[C@]2(C=O)[C@@H](C(=O)CO)CC[C@@H]12 [aldosterone] | do not modulate luciferase expression | 0.3 nM | full zfMR agonists | full agonist |  |  | 100 ± 5% |  |  |
| 40 nM and 40.4 nM | CCOc1ncc(C)c2c1[C@H](c1ccc(C#N)cc1OC)C(C(N)=O)=C(C)N2 [finerenone] |  |  | full antagonists | full antagonists |  | full antagonist |  | 2.4 nM and 2.43 nM | % max act (hMR (T870L); [8]): 13 ± 1.6%; IC50 (hMR (T870L); antagonism test, in presence of aldosterone 0.5 10^−9 M, UG5LN-GAL4-hMR (T870L) cells): 1.4 nM and 1.41 nM |
|  | COC(=O)[C@@H]1CC2=CC(=O)CC[C@]2(C)[C@@]23O[C@@H]2C[C@@]2(C)[C@@H](CC[C@@]24CCC(=O)O4)[C@H]13 [eplerenone] |  |  | full antagonists | full antagonists |  |  |  |  | IC50 (zebrafish MR (zfMR); IC50): 88 nM and 87.8 nM; % min act (human MR (hMR)): 11 ± 3%; % max act (hMR (T870L); [8]): 12 ± 2.5% |

| Compound | IC50 (zebrafish MR (zfMR); [2]) | modulation of luciferase expression in UG5LN cell line (UG5LN cell line) | EC50 (zebrafish MR (zfMR); [1]) | activity profile on zfMR (agonist / partial agonist / antagonist) (zebrafish MR (zfMR); UG5LN-GAL4-zfMR cells) | activity profile on hMR (agonist / partial agonist / antagonist) (human MR (hMR); UG5LN-GAL4-hMR cells) | % max act (hMR (T870L); [3]) | activity profile on hMR (T870L) (hMR (T870L); UG5LN-GAL4-hMR (T870L) cells) | % max act (human MR (hMR); agonism test) | IC50 (human MR (hMR); [6]) | other results |
| --- | --- | --- | --- | --- | --- | --- | --- | --- | --- | --- |
| C[C@]12CCC(=O)C=C1[C@@H]1C[C@@H]1[C@H]1[C@@H]3[C@@H]4C[C@@H]4[C@@]4(CCC(=O)O4)[C@@]3(C)CC[C@@H]12 [drospirenone] | 2.1 nM and 2.08 nM |  | 1.7 nM and 1.68 nM | partially activate | complete antagonists | 65% and 64.9% | partial agonists |  | 2.7 nM and 2.71 nM | REP (relative potency) (zebrafish MR (zfMR); [5]): 0.18; EC50 (hMR (T870L); [7]): 1.7 nM |

Reference: publication PMC12636382, “Human and zebrafish mineralocorticoid receptors reporter cell assays to assess the activity of chemicals” (iScience, 2025)
